This is an account of results in patent US7560466B2, “Methods of treating or preventing autoimmune diseases with 2,4-pyrimidinediamine compounds” (Rigel Pharmaceuticals, Inc., priority 2003, dated 2009).

For the experiment, the system named is cultured human mast cells (CHMC), IgE-induced degranulation. The experiment can be described thus: CHMC low cell density IgE activation: tryptase assay. It counts as cell-based. Here is the method:
Inhibition of degranulation was measured at both low and high cell density by quantifying the release of the granule specific factors tryptase, histamine and hexosaminidase. Inhibition of release and/or synthesis of lipid mediators was assessed by measuring the release of leukotriene LTC4 and inhibition of release and/or synthesis of cytokines was monitored by quantifying TNF-α, IL-6 and IL-13. Tryptase and hexosaminidase were quantified using fluorogenic substrates as described in their respective examples. […] The protocols of the various assays are provided below.
A second phase is performed to convert the expanded CD34-negative progenitor cells into differentiated mucosal mast cells. These mucosal cultured human mast cells (“CHMC”) are derived from CD34+ cells isolated from umbilical cord blood and treated to form a proliferated population of CD34-negative progenitor cells, as described above. […] Also, the cytokine composition of the medium was modified such that it contained SCF (200 ng/mL) and recombinant human IL-6 (200 ng/mL; Peprotech, Catalog No. 200-06 reconstituted to 100 ug/mL in sterile 10 mM acetic acid) (“CM/SCF/IL-6 medium”).
Pellet CHMC cells (980 rpm, 10 min) and resuspend in pre-warmed MT. Add 65 ul of cells to each 96-well plate. Depending on the degranulation activity for each particular CHMC donor, load 1000-1500 cells/well. Mix four times followed by a 1 hr incubation at 37° C. […] Stimulate cells by adding 25 ul of 6× anti-IgE solution to the appropriate plates. Add 25 ul MT to un-stimulated control wells. Mix twice following addition of the anti-IgE. Incubate at 37° C. for 30 minutes. […] Spin plates at 1000 rpm for 10 min to pellet cells. Transfer 25 ul of supernatant to a 96-well black bottom plate and add 100 ul of freshly diluted tryptase substrate solution to each well. Incubate plates at room temperature for 30 min.
In Table 1, all reported values are IC50s (in μM). […] In Table 1, all reported values are IC50s (in μM).

[1] abbreviates: CHMC low cell density, 3pt, read-out: LD Tryptase, CHMC, IgE, 3pt.
Setting [2] is: CHMC low cell density, 8pt, read-out: LD Tryptase, CHMC, IgE, 8pt.

The structures appear in SMILES notation. Structures can show the parent of a compound that is named as a salt. Where two headings read alike, the source gives them in different places.

Turning to `C[C@@H]1Oc2ccc(Nc3nc(Nc4ccc5c(cnn5CCCN5C(=O)CCC5=O)c4)ncc3F)cc2NC1=O` [Compound 856, (S)-5-Fluoro-N4-(2-methyl-3-oxo-2H,4H-benz[1,4]oxazin-6-yl)-N2-[1-[3-(N-succinimidopropyl)]indazol-5-yl]-2,4-pyrimidinediamine], the IC50 is, setting by setting: under setting [1], < 10 µM; under setting [2], < 10 µM.

With `CC1(C)Oc2ccc(Nc3nc(Nc4ccc5c(cnn5CCCN5C(=O)CCC5=O)c4)ncc3F)nc2NC1=O` [Compound 857, N4-(2,2-Dimethyl-3-oxo-4H-5-pyrid[1,4]oxazin-6-yl)-5-fluoro-N2-[1-[3-(N-succinimidopropyl)]indazol-5-yl]-2,4-pyrimidinediamine], the IC50 was < 10 µM under setting [1] and < 10 µM under setting [2].

Consider `CC1(C)Oc2ccc(Nc3nc(Nc4ccc5c(cnn5CCCN5C(=O)CCCC5=O)c4)ncc3F)nc2NC1=O` [Compound 862, N4-(2,2-Dimethyl-3-oxo-4H-5-pyrid[1,4]oxazin-6-yl)-N2-[1-[3-(2,6-dioxopiperidino]propyl)indazol-5-yl]-5-fluoro-2,4-pyrimidinediamine], for which the IC50 by setting is: under setting [1], < 10 µM; under setting [2], < 10 µM.

For the compound `CCOCCCn1ncc2cc(Nc3ncc(F)c(Nc4ccc5c(n4)NC(=O)C(C)(C)O5)n3)ccc21` [Compound 875, N4-(2,2-Dimethyl-3-oxo-4H-5-pyrid[1,4]oxazin-6-yl)-N2-[1-(3-ethoxypropyl)indazol-5-yl]-5-fluoro-2,4-pyrimidinediamine], the IC50 reads like this: under setting [1], < 10 µM; under setting [2], < 10 µM.

For the compound `Cn1c(=O)[nH]c2cc(Nc3ncc(F)c(Nc4ccc5c(n4)NC(=O)C(C)(C)O5)n3)ccc21` [Compound 908, N4-(2,2-Dimethyl-3-oxo-4H-5-pyrid[1,4]oxazin-6-yl)-N2-(2,3-dihydro-1-methyl-2-oxo-benzimidazol-5-yl)-5-fluoro-2,4-pyrimidinediamine], the IC50 was < 10 µM under setting [1] and < 10 µM under setting [2].

`CC1(C)Oc2ccc(Nc3nc(Nc4ccc5oncc5c4)ncc3F)nc2NC1=O` [Compound 928, N2-(1,2-Benzisoxazol-5-yl)-N4-(2,2-dimethyl-3-oxo-4H-5-pyrido[1,4]oxazin-6-yl)-5-fluoro-2,4-pyrimidinediamine]: the IC50 under setting [2] is < 10 µM.

For the compound `CCn1c(C)nc2cc(Nc3ncc(F)c(Nc4ccc5c(n4)NC(=O)C(C)(C)O5)n3)ccc21` [Compound 936, N4-(2,2-Dimethyl-3-oxo-4H-5-pyrido[1,4]oxazin-6-yl)-N2-(1-ethyl-2-methylbenzimidazol-5-yl)-5-fluoro-2,4-pyrimidinediamine], the IC50 under setting [1] is < 10 µM.

Take `CC1(C)Oc2ccc(Nc3nc(Nc4ccc5c(c4)nc(C(F)(F)F)n5CCCO)ncc3F)nc2NC1=O` [Compound 941, N4-(2,2-Dimethyl-3-oxo-4H-5-pyrido[1,4]oxazin-6-yl)-5-fluoro-N2-[1-(3-hydroxypropyl)-2-trifluoromethylbenzimidazol-5-yl]-2,4-pyrimidinediamine]: the IC50 reads like this: under setting [1], < 10 µM; under setting [2], < 10 µM.

Consider `C[C@@H]1Oc2ccc(Nc3nc(Nc4ccc5c(c4)nc(N4CCOCC4)n5C)ncc3F)cc2NC1=O` [Compound 945, (S)-5-Fluoro-N2-[1-methyl-2-(4-morpholino)benzimidazol-5-yl]-N4-(2-methyl-3-oxo-2H,4H-benz[1,4]oxazin-6-yl)-2,4-pyrimidinediamine], for which the IC50 is < 10 µM under setting [1] and < 10 µM under setting [2].

`Cn1c(N2CCOCC2)nc2cc(Nc3ncc(F)c(Nc4ccc5c(n4)NC(=O)C(C)(C)O5)n3)ccc21` [Compound 946, N4-(2,2-Dimethyl-3-oxo-4H-5-pyrido[1,4]oxazin-6-yl)-5-fluoro-N2-[1-methyl-2-(4-morpholino)benzimidazol-5-yl]-2,4-pyrimidinediamine]: the IC50 is < 10 µM under setting [1] and < 10 µM under setting [2].

`Cc1nc2cc(Nc3ncc(F)c(Nc4ccc5c(n4)NC(=O)C(C)(C)O5)n3)ccc2n1CCCO` [Compound 951, N4-(2,2-Dimethyl-3-oxo-4H-5-pyrido[1,4]oxazin-6-yl)-5-fluoro-N2-[1-(3-hydroxypropyl)-2-methylbenzimidazol-5-yl]-2,4-pyrimidinediamine]: the IC50 under setting [1] is < 10 µM and the IC50 under setting [2] is < 10 µM.

Take `CC(=O)NCCCn1c(C)nc2cc(Nc3ncc(F)c(Nc4ccc5c(n4)NC(=O)C(C)(C)O5)n3)ccc21` [Compound 953, N2-[1-[3-(N-Acetylamino)propyl]-2-methylbenzimidazol-5-yl]-N4-(2,2-Dimethyl-3-oxo-4H-5-pyrido[1,4]oxazin-6-yl)-5-fluoro-2,4-pyrimidinediamine]: the IC50 under setting [1] was < 10 µM and the IC50 under setting [2] was < 10 µM.

As for `Cn1c(CN2CCOCC2)nc2cc(Nc3ncc(F)c(Nc4ccc5c(c4)NC(=O)C(C)(C)O5)n3)ccc21` [Compound 956, N4-(2,2-Dimethyl-3-oxo-4H-benz[1,4]oxazin-6-yl)-5-fluoro-N2-[1-methyl-2-(4-morpholinomethyl)benzimidazol-5-yl]-2,4-pyrimidinediamine], the IC50 under setting [2] is < 10 µM.

As for `C[C@@H]1Oc2ccc(Nc3nc(Nc4ccc5c(c4)nc(CN4CCOCC4)n5C)ncc3F)cc2NC1=O` [Compound 957, (S)-5-Fluoro-N2-[1-methyl-2-(4-morpholinomethyl)benzimidazol-5-yl]-N4-(2-methyl-3-oxo-2H,4H-benz[1,4]oxazin-6-yl)--2,4-pyrimidinediamine], the IC50 is < 10 µM under setting [1] and < 10 µM under setting [2].

In the case of `Cn1c(CN2CCOCC2)nc2cc(Nc3ncc(F)c(Nc4ccc5c(n4)NC(=O)C(C)(C)O5)n3)ccc21` [Compound 958, N4-(2,2-Dimethyl-3-oxo-4H-5-pyrido[1,4]oxazin-6-yl)-5-fluoro-N2-[1-methyl-2-(4-morpholinomethyl)benzimidazol-5-yl]-2,4-pyrimidinediamine], the IC50 under setting [2] is < 10 µM.

With `Cc1nc2cc(Nc3ncc(F)c(Nc4ccc5c(n4)NC(=O)C(C)(C)O5)n3)ccc2n1CCCNS(C)(=O)=O` [Compound 964, N4-(2,2-Dimethyl-3-oxo-4H-5-pyrido[1,4]oxazin-6-yl)-5-fluoro-N2-[2-methyl-1-[3-(N-methylsulfonylamino)propyl]benzimidazol-5-yl]-2,4-pyrimidinediamine], the IC50 runs as follows: under setting [1], < 10 µM; under setting [2], < 10 µM.

For the compound `Cn1c(CS(C)(=O)=O)nc2cc(Nc3ncc(F)c(Nc4ccc5c(n4)NC(=O)C(C)(C)O5)n3)ccc21` [Compound 969, N4-(2,2-Dimethyl-3-oxo-4H-5-pyrido[1,4]oxazin-6-yl)-5-fluoro-N2-{1-methyl-2-[(methylsulfonyl)methyl]benzimidazol-5-yl}-2,4-pyrimidinediamine], the IC50 under setting [1] was < 10 µM and the IC50 under setting [2] is < 10 µM.

Take `CCN(CC)Cc1nc2cc(Nc3ncc(F)c(Nc4ccc5c(n4)NC(=O)C(C)(C)O5)n3)ccc2n1C` [Compound 974, N2-[2-(N,N-Diethylaminomethyl)-1-methylbenzimidazol-5-yl]-N4-(2,2-dimethyl-3-oxo-4H-5-pyrido[1,4]oxazin-6-yl)-5-fluoro-2,4-pyrimidinediamine]: the IC50 runs as follows: under setting [1], < 10 µM; under setting [2], < 10 µM.

For `CNC(=O)COc1cccc(Nc2ncc(F)c(Nc3ccc4c(n3)NC(=O)C(C)(C)O4)n2)c1` [Compound 986, N4-(2,2-Dimethyl-3-oxo-4H-5-pyrid[1,4]oxazin-6-yl)-5-fluoro-N2-[3-(N-methylamino)carbonylmethyleneoxyphenyl]-2,4-pyrimidinediamine Hydrogen Chloride Salt], the IC50 reads like this: under setting [1], < 10 µM; under setting [2], < 10 µM.

Take `COc1c(C)cc(Nc2ncc(F)c(Nc3ccc4c(c3)NCC(C)(C)O4)n2)cc1Cl` [Compound 1001, N2-(3-Chloro-4-methoxy-5-methylphenyl)-N4-(3,4-dihydro-2,2-dimethyl-4H-benz[1,4]oxazin-6-yl)-5-fluoro-2,4-pyrimidinediamine]: the IC50 under setting [2] was < 10 µM.

As for `COc1cc(Nc2ncc(F)c(Nc3ccc4c(c3)NCC(C)(C)O4)n2)cc(OC)c1` [Compound 1002, N4-(3,4-Dihydro-2,2-dimethyl-4H-benz[1,4]oxazin-6-yl)-N2-(3,5-dimethoxyphenyl)-5-fluoro-2,4-pyrimidinediamine], under setting [2], the IC50 was < 10 µM.

Consider `CC(C)c1cccc(Nc2ncc(F)c(Nc3ccc4c(n3)NC(=O)C(C)(C)O4)n2)c1` [Compound 1003, N4-(2,2-Dimethyl-3-oxo-4H-5-pyrid[1,4]oxazin-6-yl)-5-fluoro-N2-(3-isopropylphenyl)-2,4-pyrimidinediamine], for which the IC50 is < 10 µM under setting [1] and < 10 µM under setting [2].

With `CC1(C)Oc2ccc(Nc3nc(Nc4ccc(-c5ncco5)cc4)ncc3F)nc2NC1=O` [Compound 1035, N4-(2,2-Dimethyl-3-oxo-4H-5-pyrid[1,4]oxazin-6-yl)-5-fluoro-N2-[4-(oxazol-2-yl)phenyl]-2,4-pyrimidinediamine], for the setting “low cell density CHMC, 8-point, read-out: LD Tryptase, CHMC, IgE, 8pt”, the IC50 was > 10 µM.
